Earlier results, collected in US20030190354A1 (priority 2002, published 2003).
Where a name gives a salt, the structure may show the parent alone.

Conditions: 0.2 M sodium chloride

- octanol: water partition coefficient: 0.43
SMILES: COc1ccc(C(CN(C)C)C2(O)CCCCC2)cc1 (racemic) [Venlafaxine hydrochloride, (R/S)-1-[2-(dimethylamino)-1-(4-methoxyphenyl)ethyl] cyclohexanol hydrochloride]
